Tests used:
rats = test: Anti-ulcer activity, gastric lesions by absolute ethanol; format: in vivo; details: oral, 15 minutes before absolute ethanol (1 ml), evaluated one hour later; cimetidine 50 mg/Kg, composition 70 mg/Kg
Washed human platelets = test: Nitric oxide generation by chemiluminiscence, platelets; format: cell-based; details: incubation of 100 μM NO-donor, 5 minutes
Protocol: (§1) Specifically the test relates to the nitric oxide generation from the NO-donors described in the present invention, among which, for instance nitroglicerin, nicorandyl, nitroprussiate, etc., when they are put in the presence of endothelial cells (method a) or platelets (method b)
Washed human platelets, prepared analogously with what described by Radomski et al, (Br.J. Pharmacol. 92, 639-1987), were used. 0.4 ml alicuots were incubated with scalar NO-donor concentrations (1-100 μg/ml) for 5 minutes. The incubation medium (e.g. Tyrode) was then analyzed to determine the capability to generate NO, by determination of nitric oxide bv chemiluminiscence and CGMP, with the modalities described in the previous paragraph, for the analyses carried out on the endothelial cells. As to the determination by chemiluminiscence, also in this case, on the basis of a calibration curve, prepared with scalar nitrite concentrations, it was possible to quantitatively determine the generated NO concentration. For example, after incubation of 100 μM of nicorandyl, an amount equal to 35 μM of NO was generated.

[1] = tested on: Cells of the human umbilical vein; test: Nitric oxide generation by chemiluminiscence, endothelial cells; format: cell-based; details: incubation of 100 μM NO-donor, 5 minutes
Protocol: as §1
The incubation medium (physiologic solvent, for example Tyrode) has been then analyzed to determine the capability to generate NO, by:
1) the nitric oxide disclosure by chemiluminiscence;
As regards the chemiluminiscence analysis, an amount equivalent to 100 ul was injected in the reaction chamber of a chemiluminiscence analyzer containing glacial acetic acid and potassium iodide. Nitrites/nitrates present in the medium under these conditions are converted into NO which is then determined after its reaction with ozone, with consequent light generation. As it usually occurs in the devices measuring the chemiluminiscence, the produced luminiscence is directly proportional to the generated NO levels and can be measured by the suitable photomultiplier unit of a chemiluminiscence analyzer.
The photomultiplier converts the incident light into electric voltage, which is then quantitatively recorded. On the basis of a calibration curve, prepared with scalar nitrite concentrations, it was possible to quantitatively determine the generated NO concentration. […]

CN/C(=N/CCSCc1nc[nH]c1C)NC#N [Cimetidine]
Gastric Damage (rats): 100%

O=C(NCCO[N+](=O)[O-])c1cccnc1 [nicorandyl, N-[2-(nitroxy)ethyl]-3-pyridine-carboxamide]
generated NO concentration (Washed human platelets): 35 µM | generated NO concentration [1]: about 10 μM
